# Calls of active or inactive are those of the source. The rule behind the calls is not given here.
# Assays:
# unidentified = experiment: Stabilization of HSP90a promoter sequence 5'-FAM-d(GGGCCAAAGGGAAGGGGTGGG)-TAMRA-3' (unknown origin) assessed as melting temperature at 1 uM by FRET assay
# MIA PaCa-2 [1] = experiment: Downregulation of GADD45G gene expression in human MIAPaCa2 cells at subcytotoxic concentration after 24 hrs by qPCR analysis; type: functional, cell-based
# MIA PaCa-2 [2] = experiment: Induction of ATM/[…] gene expression in human MIAPaCa2 cells by qPCR analysis; type: functional, cell-based
# MIA PaCa-2 [3] = experiment: Upregulation of NTHL1 gene expression in human MIAPaCa2 cells at sublethal concentration after 24 hrs by qPCR analysis; type: functional, cell-based
# MIA PaCa-2 [4] = experiment: Downregulation of CDKN1A gene expression in human MIAPaCa2 cells at subcytotoxic concentration after 24 hrs by qPCR analysis; type: functional, cell-based
# MIA PaCa-2 [5] = experiment: Cytotoxicity against human MIAPaCa2 cells assessed as growth inhibition after 96 hrs by SRB assay; type: functional, cell-based; details: MIA PaCa-2, 96 h
# MIA PaCa-2 [6] = experiment: Upregulation of UNG gene expression in human MIAPaCa2 cells at sublethal concentration after 24 hrs by qPCR analysis; type: functional, cell-based
# MIA PaCa-2 [7] = experiment: Downregulation of CDK7 gene expression in human MIAPaCa2 cells at 20 to 160 nM after 24 hrs by qPCR analysis relative to solvent-treated control; type: functional, cell-based
# MIA PaCa-2 [8] = experiment: Inhibition of telomerase activity in human MIAPaCa2 cells assessed as telomere elongation at 5 to 7.5 nM after 7 days by TRAP-LIG assay; type: cell-based
# MIA PaCa-2 [9] = experiment: Downregulation of BAX gene expression in human MIAPaCa2 cells at 20 to 160 nM after 24 hrs by qPCR analysis relative to solvent-treated control; type: functional, cell-based
# MIA PaCa-2 [10] = experiment: Upregulation of PPP1R15A gene expression in human MIAPaCa2 cells at cytotoxic concentration after 24 hrs by qPCR analysis; type: functional, cell-based
# MIA PaCa-2 [11] = experiment: Downregulation of MPG gene expression in human MIAPaCa2 cells at 20 to 160 nM after 24 hrs by qPCR analysis relative to solvent-treated control; type: functional, cell-based
# 786-0 = experiment: Cytotoxicity against human 786-0 cells assessed as growth inhibition after 96 hrs by SRB assay; type: functional, cell-based; details: 786-0, 96 h
compound,measurement,setting,value
CN1CCN(CCCNc2cc3c4c(c(NCCCN5CCN(C)CC5)cc5c4c2C(=O)N(CCCN2CCOCC2)C5=O)C(=O)N(CCCN2CCOCC2)C3=O)CC1,ΔTm,unidentified,33.1 °C
same,Activity,MIA PaCa-2 [1],inactive
same,Activity,MIA PaCa-2 [2],inactive
same,Activity,MIA PaCa-2 [3],inactive
same,Activity,MIA PaCa-2 [4],inactive
same,IC50,MIA PaCa-2 [5],10 nM
same,Activity,MIA PaCa-2 [6],inactive
same,Activity,MIA PaCa-2 [7],Active
same,inhibition,MIA PaCa-2 [8],inactive
same,Activity,MIA PaCa-2 [9],Active
same,Activity,MIA PaCa-2 [10],Active
same,Activity,MIA PaCa-2 [11],Active
same,IC50,786-0,320 nM

# From ChEMBL document CHEMBL2331400, “Structure-based design and evaluation of naphthalene diimide G-quadruplex ligands as telomere targeting agents in pancreatic cancer cells” (J Med Chem, 2013)
